# Measurements published in the PolyMetriX glass transition set.
# ± gives the standard deviation of the reports.
row,glass transition temperature,SMILES
1,223.00 °C,*c1ccc(Oc2ccc(C(=O)c3ccc(Oc4ccc(C(=O)c5ccc(Oc6ccc(-c7nc8ccccc8n7-c7ccc(-n8c(*)nc9ccccc98)cc7)cc6)cc5)cc4)cc3)cc2)cc1 (repeat unit)
2,103.00 °C,*Oc1cccc(Oc2ccc(Oc3cccc(OC(=O)c4ccc(C(*)=O)cc4)c3)cc2)c1 (repeat unit)
3,150.00 °C,*CCCCC(=O)NNC(=O)c1ccc(C(=O)NNC(=O)CCCCOc2ccc(O*)c(C)c2)cc1 (repeat unit)
4,206.00 °C,*Oc1ccc(OC(=O)c2ccc(C(*)=O)cc2)cc1C1CCCCC1 (repeat unit)
5,294.00 °C,*Nc1ccc(-c2ccc(NC(=O)c3cccc(C(*)=O)c3)cc2)cc1 (repeat unit)
6,162.00 °C,*Oc1ccc(C(c2ccc(OC(=O)c3ccccc3-c3ccccc3C(*)=O)cc2)(C(F)(F)F)C(F)(F)F)cc1 (repeat unit)
7,176.00 °C,*Oc1ccc(Oc2ccc(/C(=N/c3ccc(/N=C(\c4ccccc4)c4ccc(*)cc4)cc3)c3ccccc3)cc2)cc1 (repeat unit)
8,247.00 °C,*C(=O)c1ccc2c(c1)C(=O)N(c1ccc(NC(=O)c3cccc(C(=O)Nc4ccc(N5C(=O)c6ccc(*)cc6C5=O)cc4)c3)cc1)C2=O (repeat unit)
9,325.00 °C,*C(=O)Nc1ccc(S(=O)(=O)c2ccc(NC(=O)c3ccc4[nH]c(-c5cc(-c6nc7cc(*)ccc7[nH]6)cc(N6C(=O)c7ccccc7C6=O)c5)nc4c3)cc2)cc1 (repeat unit)
10,230.00 °C,*c1cccc(N2C(=O)c3ccc(Oc4ccc5cc(Oc6ccc7c(c6)C(=O)N(*)C7=O)ccc5c4)cc3C2=O)c1 (repeat unit)
11,211.00 °C,*Oc1c(-c2ccccc2)cc(*)cc1-c1ccccc1-c1ccccc1 (repeat unit)
12,154.00 °C,*Oc1ccc(Oc2ccc(C(=O)c3cccc(-c4cccc(C(=O)c5ccc(*)cc5)c4)c3)cc2)cc1 (repeat unit)
13,232.00 °C,*C(=O)Oc1ccc(-c2ccc(OC(=O)c3ccc4c(c3)C(=O)N(c3ccc(Oc5ccc(N6C(=O)c7ccc(*)cc7C6=O)cc5)cc3)C4=O)cc2)cc1 (repeat unit)
14,175.00 °C,*/C=C/c1c(OC(=O)c2ccc(C(=O)Oc3cccc4ccc(*)nc34)cc2)ccc2ccccc12 (repeat unit)
15,16.2 °C,*CC(*)C(=O)Oc1ccc(C(=O)OCc2ccccc2)cc1 (repeat unit)
16,142.00 °C,*Oc1ccc2ccc(OC(=O)c3ccc(Oc4ccc(C(*)=O)cc4)cc3)cc2c1 (repeat unit)
17,188.00 °C,*CCN(CCOC(=O)Nc1ccc(C)c(NC(=O)O*)c1)c1ccc(/N=N/c2ccc(-c3nc4cc([N+](=O)[O-])ccc4[nH]3)cc2)cc1 (repeat unit)
18,156.00 °C,*C(=O)N1C(=O)N(C(=O)c2ccc3c(c2)C(=O)N(c2ccc(Oc4ccc(N5C(=O)c6ccc(*)cc6C5=O)cc4)cc2)C3=O)C(C)(C)C1=O (repeat unit)
19,25.00 °C,*/C=N/c1ccc(C(=O)OCCCCOCCCCOCCCCOC(=O)c2ccc(/N=C/c3ccc(*)s3)cc2)cc1 (repeat unit)

# More lines, now with the values behind:
row,SMILES,glass transition temperature
1,*COC(=O)c1ccc(/C(C#N)=C(\c2ccc(OC)cc2)N2CCCC(*)C2)cc1 (repeat unit),176.00 °C
2,*CCN(*)C(=O)CCCCC (repeat unit),7.00 °C
3,*Cc1ccc(CNC(=O)CCCCCCCCCCCCCCCCC(=O)N*)cc1 (repeat unit),75.00 °C
4,*Oc1ccc(OC(=O)c2cc(OCCCCCCCCCOCC3CCCN3c3ccc([N+](=O)[O-])cc3)c(C(*)=O)cc2OCCCCCCCCCOCC2CCCN2c2ccc([N+](=O)[O-])cc2)cc1 (repeat unit),34.00 °C
5,*c1ccc(Oc2ccc(C(C)(C)c3cccc(C(C)(C)c4ccc(Oc5ccc(-n6c(=O)c7cc8c(=O)n(*)c(=O)c8cc7c6=O)cc5)cc4)c3)cc2)cc1 (repeat unit),249.47 °C
6,*c1ccc(Oc2ccc(C3(c4ccc(Oc5ccc(N6C(=O)c7ccc(Oc8ccc(C9(c%10ccc(Oc%11ccc%12c(c%11)C(=O)N(*)C%12=O)cc%10)CCC(c%10ccccc%10)CC9)cc8)cc7C6=O)cc5)cc4)CCC(C(C)(C)C)CC3)cc2)cc1 (repeat unit),243.00 °C
7,*C(=O)c1ccc2c(c1)C(=O)N(c1ccc(C(C)(C)c3ccc(C(C)(C)c4ccc(N5C(=O)c6ccc(*)cc6C5=O)cc4)cc3)cc1)C2=O (repeat unit),322.00 °C
8,*Oc1ccc(C(c2ccc(OC(*)=O)cc2)C(Cl)(Cl)Cl)cc1 (repeat unit),230.00 °C
9,*c1ccc2c(c1)C(CC(CC)CCCC)(CC(CC)CCCC)c1cc(*)ccc1-2 (repeat unit),44.00 ± 21 °C
10,*CC(*)c1ccc(COCCC(F)(F)C(F)(F)C(F)(F)C(F)(F)F)cc1 (repeat unit),13.00 °C
11,*c1ccc(-c2ccc(-n3c(-c4ccc(Oc5ccc(S(=O)(=O)c6ccc(Oc7ccc(-c8nc9ccccc9n8*)cc7)cc6)cc5)cc4)nc4ccccc43)cc2)cc1 (repeat unit),289.00 °C
12,*CC(OC(C)C)C1C(=O)OC(=O)C1* (repeat unit),142.00 °C
13,*CC(*)(C)C(=O)Oc1c(Cl)c(Cl)c(Cl)c(Cl)c1Cl (repeat unit),110.00 °C
14,*CCC(=O)Nc1ccc(NC(=O)CCN2C(=O)c3ccc(C(=O)c4ccc5c(c4)C(=O)N(*)C5=O)cc3C2=O)cc1 (repeat unit),237.00 °C
15,*C(=O)Nc1ccc(Oc2ccc(S(=O)(=O)c3ccc(Oc4ccc(NC(=O)c5ccc6c(c5)C(=O)N(c5ccc(Oc7cccc8c(Oc9ccc(N%10C(=O)c%11ccc(*)cc%11C%10=O)cc9)cccc78)cc5)C6=O)cc4)cc3)cc2)cc1 (repeat unit),260.00 °C
16,*Cc1ccc(CNC(=O)CC(C)(C)CC(C)C(=O)N*)cc1 (repeat unit),125.00 °C
17,*c1ccc(N2C(=O)c3c(c(-c4ccccc4)c(-c4ccc(-c5c(-c6ccccc6)c6c(c(-c7ccccc7)c5-c5ccccc5)C(=O)N(*)C6=O)cc4)c(-c4ccccc4)c3-c3ccccc3)C2=O)cc1 (repeat unit),466.00 °C
18,*c1cc(C)c(/N=C/c2ccc(OCc3ccc(COc4ccc(/C=N/c5cc(C)c(N6C(=O)c7ccc8c9ccc%10c%11c(ccc(c%12ccc(c7c8%12)C6=O)c%119)C(=O)N(*)C%10=O)cc5C)cc4OC)cc3)c(OC)c2)cc1C (repeat unit),145.00 °C
19,*CC(*)(C)C(=O)OCCCCCCOc1ccc(OC(=O)c2ccc(OCCCCCCCC)cc2)cc1 (repeat unit),-1.00 °C
20,*CC(*)(C)C(=O)OC(C)(C)C (repeat unit) [Poly(t-butyl methacrylate) ],107 ± 0.6 °C

row,SMILES,glass transition temperature
1,*c1cccc(*)c1 (repeat unit),104.93 °C
2,*CC(=O)Nc1ccc(Oc2ccc(S(=O)(=O)c3ccc(Oc4ccc(NC(=O)CN5C(=O)c6ccc(C(c7ccc8c(c7)C(=O)N(*)C8=O)(C(F)(F)F)C(F)(F)F)cc6C5=O)cc4)cc3)cc2)cc1 (repeat unit),241.00 °C
3,*OC(*)CCCCCC (repeat unit),-116.00 °C
4,*C(=O)Nc1ccc(Oc2ccc(NC(=O)c3ccc4c(c3)C(=O)N(c3ccc(-c5sc(-c6ccc(N7C(=O)c8ccc(*)cc8C7=O)cc6)c(-c6ccccc6)c5-c5ccccc5)cc3)C4=O)cc2)cc1 (repeat unit),320.00 °C
5,*Oc1ccc(NC(=O)c2ccc(C(c3ccc(C(=O)Nc4ccc(Oc5ccc(C6(c7ccc(*)cc7)C7CC8CC(C7)CC6C8)cc5)cc4)cc3)(C(F)(F)F)C(F)(F)F)cc2)cc1 (repeat unit),241.00 °C
6,*CC(*)C(=O)OCCC(F)(F)C(F)(F)C(F)(F)C(F)(F)C(F)(F)C(F)(F)C(F)(F)C(F)(F)F (repeat unit),52.00 °C
7,*c1ccc(Sc2ccc(Sc3ccc(Sc4ccc(Sc5ccc(N6C(=O)c7ccc(Sc8ccc(Sc9ccc(Sc%10ccc%11c(c%10)C(=O)N(*)C%11=O)cc9)cc8)cc7C6=O)cc5)s4)s3)s2)cc1 (repeat unit),177.00 °C
8,*CC(COc1ccc(O*)cc1)OC(C)=O (repeat unit),49.00 °C
9,*CCCN1C(=O)C2C3C=CC(C4C(=O)N(*)C(=O)C34)C2C1=O (repeat unit),210.00 °C
10,*Oc1c(-c2ccccc2)cc(Cc2cc(-c3ccccc3)c(OC(=O)CCCCCCCCC(*)=O)c(-c3ccccc3)c2)cc1-c1ccccc1 (repeat unit),92.00 °C
11,*CC(*)c1ccc(C(=O)C(F)(F)F)cc1 (repeat unit),95.00 °C
12,*CC(*)c1ccc(/C(C)=N/O)cc1 (repeat unit),134.00 °C
13,*CCCCCCCCCCOC(=O)CCCCCCCCCCCCCCCCC(=O)O* (repeat unit),-17.00 °C
14,*CCCCCCCCCCCCCCCCCCCCC(*)COCCOCCOCCOCCOCc1ccc2ccc3cccc4ccc1c2c34 (repeat unit),-21.00 °C
15,*C(=O)c1cc2c(cc1Cl)C(=O)N(c1cc(C(=O)O)cc(N3C(=O)c4cc(*)c(Cl)cc4C3=O)c1)C2=O (repeat unit),368.00 °C
16,*C1C(=O)N(c2ccccc2C(=O)OCCCC)C(=O)C1* (repeat unit),181.00 °C
17,*CC(O)CN(CCO)S(=O)(=O)c1ccc(-c2ccc(S(=O)(=O)N(CCO)CC(O)COc3ccc(C(C)(C)c4ccc(O*)cc4)cc3)cc2)cc1 (repeat unit),76.00 °C
18,*c1ccc2c(c1)C(=O)N(c1ccc(-c3ccc(N4C(=O)c5ccc(C(*)(C(F)(F)F)C(F)(F)F)cc5C4=O)c(OCCN(CC)c4ccc(C(C#N)=C(C#N)C#N)cc4)c3)cc1OCCN(CC)c1ccc(C(C#N)=C(C#N)C#N)cc1)C2=O (repeat unit),222.00 °C
19,*CC(*)C(=O)OCC(F)(F)F (repeat unit),3.10 °C
20,*c1ccc2c(c1)C(=O)N(c1cccc(Oc3ccc(Oc4cccc(N5C(=O)c6ccc(C(*)(C(F)(F)F)C(F)(F)F)cc6C5=O)c4)cc3)c1)C2=O (repeat unit),230.00 °C
